Measurements taken from ChEMBL document CHEMBL3045600, “Synthesis and Fungicidal Activities of Phenoxyphenyl Alkoxyiminoacetamide Derivatives” (J Pestic Sci, 1998).

Assays:
Colletotrichum lagenaria = experiment: Fungicidal activity against Colletotrichum lagenaria assessed as inhibition of mycelial growth by agar dilution method; type: functional, organism-based
Alternaria alternata = experiment: Fungicidal activity against Alternaria alternata apple pathotype assessed as inhibition of mycelial growth by agar dilution method; type: functional, organism-based
Thanatephorus cucumeris [1] = experiment: Fungicidal activity against Thanatephorus cucumeris assessed as rice sheath blight disease control at 7.8 ppm foliar application for 24 hr before inoculation at 26 +- 2 measured after 5 days by preventive manner; type: functional
[2] = tested on: Pseudoperonospora cubensis; experiment: Fungicidal activity against Pseudoperonospora cubensis assessed as cucumber downy mildew disease control at 125 ppm foliar application 24 hr before inoculation on upper surface of leaf by preventive manner; type: functional
Pyricularia oryzae [3] = experiment: Fungicidal activity against Magnaporthe oryzae assessed as inhibition of mycelial growth by agar dilution method; type: functional, organism-based
Sclerotinia sclerotiorum = experiment: Fungicidal activity against Sclerotinia sclerotiorum assessed as inhibition of mycelial growth by agar dilution method; type: functional, organism-based
Podosphaera fuliginea [4] = experiment: Fungicidal activity against Podosphaera fuliginea assessed as cucumber powdery mildew control under greenhouse at 125 ppm foliar application 24 hr before inoculation on upper surface of leaf at 23 +/- 2 degC by preventive manner; type: functional
Thanatephorus cucumeris [5] = experiment: Fungicidal activity against Thanatephorus cucumeris assessed as rice sheath blight disease control at 125 ppm foliar application for 24 hr before inoculation at 26 +- 2 measured after 5 days by preventive manner; type: functional
Cladosporium herbarum = experiment: Fungicidal activity against Cladosporium herbarum assessed as inhibition of mycelial growth by agar dilution method; type: functional, organism-based
Thanatephorus cucumeris [6] = experiment: Fungicidal activity against Thanatephorus cucumeris assessed as rice sheath blight disease control at 31.3 ppm foliar application for 24 hr before inoculation at 26 +- 2 measured after 5 days by preventive manner; type: functional
Pythium aphanidermatum = experiment: Fungicidal activity against Pythium aphanidermatum assessed as inhibition of mycelial growth by agar dilution method; type: functional, organism-based
Botrytis cinerea [7] = experiment: Fungicidal activity against Botryotinia fuckeliana assessed as cucumber gray mold disease control at 125 ppm foliar application 24 hr before inoculation at 22 +/- 2 degC measured after 3 days by preventive manner; type: functional
Botrytis cinerea [8] = experiment: Fungicidal activity against Botryotinia fuckeliana assessed as cucumber gray mold disease control at 31.3 ppm foliar application 24 hr before inoculation at 22 +/- 2 degC measured after 3 days by preventive manner; type: functional
Podosphaera fuliginea [9] = experiment: Fungicidal activity against Podosphaera fuliginea assessed as cucumber powdery mildew control under greenhouse at 31.3 ppm foliar application 24 hr before inoculation on upper surface of leaf at 23 +/- 2 degC by preventive manner; type: functional
Botrytis cinerea [10] = experiment: Fungicidal activity against Botryotinia fuckeliana assessed as inhibition of mycelial growth by agar dilution method; type: functional, organism-based
Podosphaera fuliginea [11] = experiment: Fungicidal activity against Podosphaera fuliginea assessed as cucumber powdery mildew control under greenhouse at 7.8 ppm foliar application 24 hr before inoculation on upper surface of leaf at 23 +/- 2 degC by preventive manner; type: functional
Fusarium oxysporum = experiment: Fungicidal activity against Fusarium oxysporum assessed as inhibition of mycelial growth by agar dilution method; type: functional, organism-based
[12] = tested on: Pseudoperonospora cubensis; experiment: Fungicidal activity against Pseudoperonospora cubensis assessed as cucumber downy mildew disease control at 31.3 ppm foliar application 24 hr before inoculation on upper surface of leaf by preventive manner; type: functional
Athelia rolfsii = experiment: Fungicidal activity against Athelia rolfsii assessed as inhibition of mycelial growth by agar dilution method; type: functional, organism-based, Agroathelia rolfsii
[13] = tested on: Colletotrichum gloeosporioides; experiment: Fungicidal activity against Glomerella cingulata assessed as inhibition of mycelial growth by agar dilution method; type: functional, organism-based
Botrytis cinerea [14] = experiment: Fungicidal activity against Botryotinia fuckeliana assessed as cucumber gray mold disease control at 7.8 ppm foliar application 24 hr before inoculation at 22 +/- 2 degC measured after 3 days by preventive manner; type: functional
[15] = tested on: Pseudoperonospora cubensis; experiment: Fungicidal activity against Pseudoperonospora cubensis assessed as cucumber downy mildew disease control at 7.8 ppm foliar application 24 hr before inoculation on upper surface of leaf by preventive manner; type: functional
[16] = tested on: Pseudoperonospora cubensis; experiment: Fungicidal activity against Pseudoperonospora cubensis assessed as cucumber downy mildew disease control at 7.8 ppm foliar application 24 hr after inoculation on upper surface of leaf by curative manner; type: functional
Podosphaera fuliginea [17] = experiment: Fungicidal activity against Podosphaera fuliginea assessed as cucumber powdery mildew control under greenhouse at 2 ppm foliar application 24 hr after inoculation on upper surface of leaf at 23 +/- 2 degC by curative manner; type: functional
Botrytis cinerea [18] = experiment: Fungicidal activity against Botryotinia fuckeliana assessed as cucumber gray mold disease control at 31.3 ppm foliar application 24 hr after inoculation at 22 +/- 2 degC measured after 3 days by curative manner; type: functional
Botrytis cinerea [19] = experiment: Fungicidal activity against Botryotinia fuckeliana assessed as cucumber gray mold disease control at 2 ppm foliar application 24 hr after inoculation at 22 +/- 2 degC measured after 3 days by curative manner; type: functional
Podosphaera fuliginea [20] = experiment: Fungicidal activity against Podosphaera fuliginea assessed as cucumber powdery mildew control under greenhouse at 2 ppm foliar application 24 hr before inoculation on upper surface of leaf at 23 +/- 2 degC by preventive manner; type: functional
Botrytis cinerea [21] = experiment: Fungicidal activity against Botryotinia fuckeliana assessed as cucumber gray mold disease control at 7.8 ppm foliar application 24 hr after inoculation at 22 +/- 2 degC measured after 3 days by curative manner; type: functional
Podosphaera fuliginea [22] = experiment: Fungicidal activity against Podosphaera fuliginea assessed as cucumber powdery mildew control under greenhouse at 7.8 ppm foliar application 24 hr after inoculation on upper surface of leaf at 23 +/- 2 degC by curative manner; type: functional
Thanatephorus cucumeris [23] = experiment: Fungicidal activity against Thanatephorus cucumeris assessed as rice sheath blight disease control at 2 ppm foliar application for 24 hr before inoculation at 26 +- 2 measured after 5 days by preventive manner; type: functional
[24] = tested on: Pseudoperonospora cubensis; experiment: Fungicidal activity against Pseudoperonospora cubensis assessed as cucumber downy mildew disease control at 2 ppm foliar application 24 hr after inoculation on upper surface of leaf by curative manner; type: functional
Podosphaera fuliginea [25] = experiment: Fungicidal activity against Podosphaera fuliginea assessed as cucumber powdery mildew control under greenhouse at 31.3 ppm foliar application 24 hr after inoculation on upper surface of leaf at 23 +/- 2 degC by curative manner; type: functional
Botrytis cinerea [26] = experiment: Fungicidal activity against Botryotinia fuckeliana assessed as cucumber gray mold disease control at 2 ppm foliar application 24 hr before inoculation at 22 +/- 2 degC measured after 3 days by preventive manner; type: functional
[27] = tested on: Pseudoperonospora cubensis; experiment: Fungicidal activity against Pseudoperonospora cubensis assessed as cucumber downy mildew disease control at 2 ppm foliar application 24 hr before inoculation on upper surface of leaf by preventive manner; type: functional
Podosphaera fuliginea [28] = experiment: Fungicidal activity against Podosphaera fuliginea assessed as cucumber powdery mildew control under greenhouse at 125 ppm foliar application 24 hr after inoculation on upper surface of leaf at 23 +/- 2 degC by curative manner; type: functional
[29] = tested on: Pseudoperonospora cubensis; experiment: Fungicidal activity against Pseudoperonospora cubensis assessed as cucumber downy mildew disease control at 31.3 ppm foliar application 24 hr after inoculation on upper surface of leaf by curative manner; type: functional
Botrytis cinerea [30] = experiment: Fungicidal activity against Botryotinia fuckeliana assessed as cucumber gray mold disease control at 125 ppm foliar application 24 hr after inoculation at 22 +/- 2 degC measured after 3 days by curative manner; type: functional
[31] = tested on: Pseudoperonospora cubensis; experiment: Fungicidal activity against Pseudoperonospora cubensis assessed as cucumber downy mildew disease control at 125 ppm foliar application 24 hr after inoculation on upper surface of leaf by curative manner; type: functional
Pyricularia oryzae [32] = experiment: Fungicidal activity against Magnaporthe oryzae assessed as rice blast disease control at 10 ppm submerged application measured after 7 days; type: functional
Pyricularia oryzae [33] = experiment: Fungicidal activity against Magnaporthe oryzae assessed as rice blast disease control at 0.16 ppm submerged application measured after 7 days; type: functional
Pyricularia oryzae [34] = experiment: Fungicidal activity against Magnaporthe oryzae assessed as rice blast disease control at 0.63 ppm submerged application measured after 7 days; type: functional
Pyricularia oryzae [35] = experiment: Fungicidal activity against Magnaporthe oryzae assessed as rice blast disease control at 2.5 ppm submerged application measured after 7 days; type: functional

SMILES | EC50 (Colletotrichum lagenaria) [ppm] | EC50 (Alternaria alternata) [ppm] | Activity (Thanatephorus cucumeris [1]) [%] | Activity [2] [%] | EC50 (Pyricularia oryzae [3]) [ppm] | EC50 (Sclerotinia sclerotiorum) [ppm] | Activity (Podosphaera fuliginea [4]) [%] | Activity (Thanatephorus cucumeris [5]) [%] | EC50 (Cladosporium herbarum) [ppm] | Activity (Thanatephorus cucumeris [6]) [%] | EC50 (Pythium aphanidermatum) [ppm] | Activity (Botrytis cinerea [7]) [%] | Activity (Botrytis cinerea [8]) [%] | Activity (Podosphaera fuliginea [9]) [%] | EC50 (Botrytis cinerea [10]) [ppm] | Activity (Podosphaera fuliginea [11]) [%] | EC50 (Fusarium oxysporum) [ppm] | Activity [12] [%] | Activity (Botrytis cinerea [14]) [%] | Activity [15] [%] | other results
CNC(=O)/C(=N\OC)c1ccccc1Oc1ccccc1 | 61.8 | > 64 | 0 | 70 | 49.1 | 11.9 | 100 | 50 | 41.8 | 0 | 28.1 | 44 | 36 | 100 | 1.7 | 40 | 58.1 | 0 | 18 | 0 | EC50 (Athelia rolfsii): 41.1 ppm; EC50 [13]: 16.2 ppm
CNC(=O)/C(=N/OC)c1ccccc1Oc1ccccc1[N+](=O)[O-] |  |  | <70 | <70 |  |  | <70 | <70 |  | <70 |  | <70 | <70 | <70 |  | <70 |  | <70 | <70 | <70 | Activity [16]: <50%; Activity (Podosphaera fuliginea [17]): <50%; Activity (Botrytis cinerea [18]): <50%; Activity (Botrytis cinerea [19]): <50%; Activity (Podosphaera fuliginea [20]): <70%; Activity (Botrytis cinerea [21]): <50%; Activity (Podosphaera fuliginea [22]): <50%; Activity (Thanatephorus cucumeris [23]): <70%; Activity [24]: <50%; Activity (Podosphaera fuliginea [25]): <50%; Activity (Botrytis cinerea [26]): <70%; Activity [27]: <70%; Activity (Podosphaera fuliginea [28]): <50%; Activity [29]: <50%; Activity (Botrytis cinerea [30]): <50%; Activity [31]: <50%
CNC(=O)/C(=N/OC)c1ccccc1Oc1ccccc1 [METOMINOSTROBIN] | 4.7 | 20.8 | 50 | 100 | 5.6 | 2 | 100 | 70 | 4.5 | 70 | 2.8 | 95 | 92 | 100 | 1.1 | 70 | 6.2 | 100 | 73 | 30 | Activity [16]: 50%; Activity (Pyricularia oryzae [32]): 50%; Activity (Podosphaera fuliginea [17]): 50%; Activity (Pyricularia oryzae [33]): 50%; Activity (Botrytis cinerea [18]): 50%; Activity (Botrytis cinerea [19]): 50%; Activity (Pyricularia oryzae [34]): 50%; Activity (Pyricularia oryzae [35]): 50%; Activity (Botrytis cinerea [21]): 50%; Activity (Podosphaera fuliginea [22]): 50%; Activity [24]: 50%; Activity (Podosphaera fuliginea [25]): 50%; Activity (Podosphaera fuliginea [28]): 50%; EC50 (Athelia rolfsii): 2.5 ppm; Activity [29]: 50%; EC50 [13]: 7.2 ppm; Activity (Botrytis cinerea [30]): 50%; Activity [31]: 50%
